From patent US6583133B1, “Propenyl cephalosporin derivatives and process for the manufacture thereof” (Basilea Pharmaceutica AG, priority 1998, dated 2003)
In brackets after ≈: the same amount, converted by molar mass. Read-outs that look alike come from different tables or passages of the source.

Columns and labels:
E. faecalis 6 = experiment: MIC, agar dilution method in Mueller Hinton agar; type: cell-based; conditions: inoculum 10^4 CFU/spot
Procedure: (§1) Representative compounds of the present invention were tested. In vitro activity was determined by minimum inhibitory concentration in a microorganism spectrum by the agar dilution method in Mueller Hinton agar, inoculum=10^4 CFU/spot.

S. aureus 270A (MRSA) = experiment: MIC, agar dilution method in Mueller Hinton agar; type: cell-based; conditions: inoculum 10^4 CFU/spot
Procedure: as §1

S. aureus 6538 (MSSA) = experiment: MIC, agar dilution method in Mueller Hinton agar; type: cell-based; conditions: inoculum 10^4 CFU/spot
Procedure: as §1

S. pneumoniae 907 = experiment: MIC, agar dilution method in Mueller Hinton agar; type: cell-based; conditions: inoculum 10^4 CFU/spot
Procedure: as §1

S. aureus 42080 (MRSA) = experiment: MIC against MRSA alone or in combination with imipenem or compound X, agar dilution; type: cell-based, Staphylococcus aureus; conditions: inoculum 10^5 CFU/spot; for MIC: Staphylococcus aureus, MRSA
Text: (§2) For example, the combination with carbapenem antibiotics such as imipenem, or with β-lactamase-inhibitors such as (Z)-(2S,3S,5R)-3-(2-cyanoethenyl)-3-methyl-4,4,7-trioxo-4-thia-1-aza-bicyclo[3.2.0]heptane-2-carboxylic acid (below named “compound X”), enhances the antibacterial activity of compounds I against highly resistant strains of Graem-positive bacterias, e.g. methicillin-resistant strains of Staphylococcus aureus.

S. aureus SPO-19 (MRSA) = experiment: as above; type: cell-based, Staphylococcus aureus; conditions: inoculum 10^5 CFU/spot; for MIC: Staphylococcus aureus, MRSA
Text: as §2

[1] = Enterococcus faecalis, read-out: MIC
[2] = Staphylococcus aureus, read-out: MIC
[3] = Streptococcus pneumoniae, read-out: MIC
[4] = in combination with Compound X (μg/ml, concentration not given)
[5] = in combination with Imipenem (4 μg/ml)

Row | Molecule | MIC (E. faecalis 6; [1]) [µg/mL] | MIC (S. aureus 270A (MRSA); [2]) [µg/mL] | MIC (S. aureus 6538 (MSSA); [2]) [µg/mL] | MIC (S. pneumoniae 907; [3]) [µg/mL] | MIC (E. faecalis 6) [µg/mL] | MIC (S. aureus 270A (MRSA)) [µg/mL] | MIC (S. aureus 6538 (MSSA)) [µg/mL] | MIC (S. pneumoniae 907) [µg/mL] | other results
1 | O=C(CSc1nc2ccccc2s1)N[C@@H]1C(=O)N2C(C(=O)[O-])=C(/C=C/C[n+]3ccccc3)CS[C@H]12 [Example 2, (E)-(6R,7R)-7-[2-(benzothiazol-2-ylsulfanyl)-acetylamino]-8-oxo-3-(3-pyridin-1-ium-1-yl-propenyl)-5-thia-1-aza-bicyclo[4.2.0]oct-2-ene-2-carboxylate] | 2 (≈ 3.81 µM) | 2 (≈ 3.81 µM) | < 0.1 | < 0.1 |  |  |  |  | 
2 | Cc1cccc[n+]1C/C=C/C1=C(C(=O)[O-])N2C(=O)[C@@H](NC(=O)CSc3ccc4ccccc4c3)[C@H]2SC1 [Example 7, (E)-(6R,7R)-3-[3-(2-Methyl-pyridin-1-ium-1-yl)-propenyl]-7-[2-(naphthalen-2-ylsulfanyl)-acetylamino]-8-oxo-5-thia-1-aza-bicyclo[4.2.0]oct-2-ene-2-carboxylate] | 1 (≈ 1.88 µM) | 2 (≈ 3.76 µM) | < 0.1 | < 0.1 |  |  |  |  | 
3 | O=C(CSc1ccc2ccccc2c1)N[C@@H]1C(=O)N2C(C(=O)[O-])=C(/C=C/C[n+]3cccc(O)c3)CS[C@H]12 [Example 9, (E)-(6R,7R)-3-[3-(3-Hydroxy-pyridin-1-ium-1-yl)-propenyl]-7-[2-(naphtalen-2-ylsulfanyl)-acetylamino]-8-oxo-5-thia-1-aza-bicyclo[4.2.0]oct-2-ene-2-carboxylate] |  |  |  |  | 0.5 (≈ 0.937 µM) | 2 (≈ 3.75 µM) | <0.1 | <0.1 | 
4 | O=C(CSc1ccc2ccccc2c1)N[C@@H]1C(=O)N2C(C(=O)[O-])=C(/C=C/C[n+]3cccc4ccccc43)CS[C@H]12 [Example 13, (E)-(6R,7R)-7-[2-(Naphthalen-2-ylsulfanyl)-acetylamino]-8-oxo-3-(3-quinolin-1-ium-1-yl-propenyl)-5-thia-1-aza-bicyclo[4.2.0]oct-2-ene-2-carboxylate] | 0.25 (≈ 0.44 µM) | 1 (≈ 1.76 µM) | < 0.1 | < 0.1 |  |  |  |  | 
5 | C[N+]1(C/C=C/C2=C(C(=O)[O-])N3C(=O)[C@@H](NC(=O)CSc4ccc5ccccc5c4)[C@H]3SC2)CCCC1 [Example 15] |  |  |  |  | 0.5 (≈ 0.955 µM) | 2 (≈ 3.82 µM) | <0.1 | <0.1 | 
6 | C[N+](C)(C/C=C/C1=C(C(=O)[O-])N2C(=O)[C@@H](NC(=O)CSc3ccc4ccccc4c3)[C@H]2SC1)CC(N)=O [Example 19, (E)-(6R,7R)-3-[3-(Carbamoylmethyl-dimethyl-ammonio)-propenyl]-7-[2-(naphtalen-2-ylsulfanyl)-acetylamino]-8-oxo-5-thia-1-aza-bicyclo[4.2.0]oct-2-ene-2-carboxylate] |  |  |  |  | 0.5 (≈ 0.925 µM) | 1 (≈ 1.85 µM) | <0.1 | <0.1 | 
7 | O=C(CSc1ccc2ccccc2c1)N[C@@H]1C(=O)N2C(C(=O)[O-])=C(/C=C/C[n+]3ccccc3)CS[C@H]12 [Example 22, (E)-(6R,7R)-7-[2-(naphthalen-2-ylsulfanyl)-acetylamino]-8-oxo-3-(3-pyridin-1-ium-1-yl-propenyl)-5-thia-1-aza-bicyclo[4.2.0]oct-2-ene-2-carboxylate] | 0.5 (≈ 0.966 µM) | 1 (≈ 1.93 µM) | < 0.1 | < 0.1 |  |  |  |  | MIC (S. aureus 42080 (MRSA); compound alone): 4 µg/mL; MIC against MRSA (S. aureus 42080 (MRSA); [4]): 1 µg/mL; MIC against MRSA (S. aureus 42080 (MRSA); [5]): 1 µg/mL; MIC (S. aureus SPO-19 (MRSA); compound alone): 4 µg/mL; MIC against MRSA (S. aureus SPO-19 (MRSA); [4]): 0.5 µg/mL; MIC against MRSA (S. aureus SPO-19 (MRSA); [5]): 1 µg/mL
8 | C[N+](C)(C/C=C/C1=C(C(=O)[O-])N2C(=O)[C@@H](NC(=O)CSc3nc4ccccc4s3)[C@H]2SC1)CCO [Example 41, (E)-(6R,7R)-3-[3-[Dimethyl-(2-hydroxy-ethyl)-ammonio]-propenyl]-7-[2-(benzothiazol-2-ylsulfanyl)-acetylamino]-8-oxo-5-thias1-aza-bicyclo[4.2.0]oct-2-ene-2-carboxylate] |  |  |  |  | 1 (≈ 1.87 µM) | 4 (≈ 7.48 µM) | <0.1 | <0.1 | 
9 | O=C(CSc1ccc2ccccc2c1)N[C@@H]1C(=O)N2C(C(=O)[O-])=C(/C=C/C[N+]34CCN(CC3)CC4)CS[C@H]12 [Example 59, (E)-(6R,7R)-3-[3-(4-Aza-1-azonia-bicyclo[2,2,2]octan-1-yl)-propenyl]-7-[2-(naphthalen-2-ylsulfanyl)-acetylamino]-8-oxo-5-thia-1-aza-bicyclo[4.2.0]oct-2-ene-2-carboxylate] | 2 (≈ 3.63 µM) | 2 (≈ 3.63 µM) | < 0.1 | < 0.1 |  |  |  |  | MIC (S. aureus 42080 (MRSA); compound alone): 4 µg/mL; MIC against MRSA (S. aureus 42080 (MRSA); [5]): 2 µg/mL; MIC (S. aureus SPO-19 (MRSA); compound alone): 4 µg/mL; MIC against MRSA (S. aureus SPO-19 (MRSA); [5]): 1 µg/mL
10 | C[N+](C)(C/C=C/C1=C(C(=O)[O-])N2C(=O)[C@@H](NC(=O)CSc3ccc4ccccc4c3)[C@H]2SC1)CCCO [Example 62, (E)-(6R,7R)-3-[3-[(3-Hydroxy-propyl)-dimethyl-ammonio]-propenyl]-7-[2-(naphthalen-2-ylsulfanyl)-acetylamino]-8-oxo-5-thia-1-aza-bicyclo[4.2.0]oct-2-ene-2-carboxylate] | 1 (≈ 1.85 µM) | 2 (≈ 3.69 µM) | < 0.1 | < 0.1 |  |  |  |  | MIC (S. aureus 42080 (MRSA); compound alone): 4 µg/mL; MIC against MRSA (S. aureus 42080 (MRSA); [5]): 2 µg/mL; MIC (S. aureus SPO-19 (MRSA); compound alone): 2 µg/mL; MIC against MRSA (S. aureus SPO-19 (MRSA); [5]): 1 µg/mL
11 | C[N+](C)(C/C=C/C1=C(C(=O)[O-])N2C(=O)[C@@H](NC(=O)CSc3nc4ccccc4s3)[C@H]2SC1)C(CO)CO [Example 67, (E)-(6R,7R)-7-[2-(Benzothiazol-2-ylsulfanyl)-acetylamino]-8-oxo-3-[3-[(2-hydroxy-1-hydroxymethyl-ethyl)-dimethyl-ammonio]-propenyl]-5-thia-1-aza-bicyclo[4.2.0]oct-2-ene-2-carboxylate] | 1 (≈ 1.77 µM) | 2 (≈ 3.54 µM) | < 0.1 | < 0.1 |  |  |  |  | 
12 | C[N+](C)(C/C=C/C1=C(C(=O)[O-])N2C(=O)[C@@H](NC(=O)CSc3ccc4cc(C(=O)O)ccc4c3)[C@H]2SC1)CC(N)=O [Example 99] |  |  |  |  | 4 (≈ 6.84 µM) | 2 (≈ 3.42 µM) | <0.1 | <0.1 | 
13 | C[C@@H](O)[C@H]1C(=O)N2C(C(=O)O)=C(SCCN=CN)C[C@H]12 [Imipenem, imipenem, reference compound] |  |  |  |  |  |  |  |  | MIC (S. aureus 42080 (MRSA); compound alone): > 16 µg/mL; MIC (S. aureus SPO-19 (MRSA); compound alone): > 16 µg/mL
14 | (E)-(6R,7R)-8-Oxo-3-(3-pyridin-1-ium-1-yl-propenyl)-7-[2-(2,4,5-trichlorophenylsulfanyl)-acetylamino]-5-thia-1-aza-bicyclo[4.2.0]oct-2-ene-2-carboxylate [Example 6] |  |  |  |  | 0.25 | 1 | <0.1 | <0.1 | MIC against MRSA (S. aureus 42080 (MRSA); compound alone): 8 µg/mL; MIC against MRSA (S. aureus 42080 (MRSA); [5]): 1 µg/mL; MIC against MRSA (S. aureus SPO-19 (MRSA); compound alone): 4 µg/mL; MIC against MRSA (S. aureus SPO-19 (MRSA); [5]): 0.5 µg/mL
